Assay results reported in patent US20120128715A1, “METHOD FOR STIMULATING THE IMMUNE RESPONSE OF NEWBORNS” (3M INNOVATIVE PROPERTIES COMPANY, priority 2004, published 2012).
No end group written: not given here. 2,3‑bisacyloxypropyl = 2,3-bisacyloxypropyl group on the Cys sulfur

Legend:
TLR8 and TLR7 [1] = experiment: TLR agonism and TLR8 selectivity (TLR-mediated activity); type: cell-based; settings: for concentration inducing TLR8 activity as fraction of that necessary to induce TLR7-mediated activity: TLR8 vs TLR7 selectivity; for TLR8 selectivity: named as examples of TLR8-selective compounds
Text: The TLR agonism for a particular compound may be assessed in any suitable manner.
Conversely, a compound may be identified as not acting as an agonist of a specified TLR if, when used to perform an assay designed to detect biological activity mediated by the specified TLR, the compound fails to elicit a threshold increase in the biological activity. […] An assay may or may not be performed in conjunction with the appropriate control.
A significant degree may be, for example, inducing activity mediated by one TLR (e.g., TLR8) when administered at half the concentration necessary to induce activity through another TLR (e.g., TLR7).
Assays employing HEK293 cells transfected with an expressible TLR structural gene may use a threshold of, for example, at least a three-fold increase in a TLR-mediated biological activity (e.g., NFκB activation) when the compound is provided at a concentration of, for example, from about 1 μM to about 10 μM for identifying a compound as an agonist of the TLR transfected into the cell. However, different thresholds and/or different concentration ranges may be suitable in certain circumstances. Also, different thresholds may be appropriate for different assays.

TLR8 and TLR7 [2] = settings: cited from earlier work
[3] = system: newborn cord blood and adult peripheral blood; experiment: TLR ligand-induced TNF-α release in whole blood ex vivo (ELISA); type: cell-based, human; settings: for ligand-induced TNF-α release in newborn cord blood compared with adult peripheral blood: 5-hour incubation, FIGS. 1A-1E
Experimental: Peripheral blood was collected from healthy adult volunteers (N=26 individual volunteers; mean age 27 years; 45% male, 55% female) and newborn cord blood (N=63; mean gestational age 39 weeks; 43% male, 57% female) collected immediately after cesarean section delivery (epidural anesthesia) of the placenta or from the umbilical cord immediately after vaginal birth but prior to delivery of the placenta. Births at which antibiotics were administered during labor and/or delivery, and births to HIV-positive mothers were excluded. Human experimentation guidelines of the US Department of Health and Human Services and the Brigham & Women's Hospital were observed, following protocols approved by the local Institutional Review Board. Blood was anticoagulated with 129 mM sodium citrate (Becton Dickinson, Franklin Lakes, N.J.). Hemocytes were collected by centrifugation of blood, followed by washing three times with Hank's Balanced Salt Solution (HBSS) buffer without magnesium or calcium (Gibco BRL, Grand Island, N.Y.) and then resuspension in either autologous or heterologous 100% plasma.
TLR ligands included the synthetic triacylated BLP (tBLP) Pam3-CSSNA (Bachem Bioscience, King of Prussia, Pa.) corresponding to the N-terminus of a BLP from E. coli B/r (Biesert et al. 1987. Eur J Biochem 162:651), the synthetic diacylated BLP macrophage-activating lipopeptide-2 (MALP; S-(2,3-bisAcyloxypropyl)-cysteine-[…] (SEQ ID NO: 5); Alexis Biochemicals, Lausen, Switzerland) from Mycoplasma fermentans (Muhlradt et al. 1997. J Exp Med. 185:1951), ultrapure Re 595 LPS from Salmonella minnesota (List Biologicals, Campbell, Calif.), and the IRM compounds imiquimod (3M Pharmaceuticals, Northridge, Calif.), and resiquimod (InvivoGen, San Diego, Calif.). Specificity of individual TLR ligands for their cognate receptors was confirmed using either NF-kB luciferase reporter and TLR co-transfected Human Embryonic Kidney (HEK) 293 cells or a neutralizing mAb to TLR2 (Levy, O. et al. 2003. Infect Immun 71:6344), as previously described.
After incubation of TLR ligands in blood or monocyte suspensions for 5 hours at 37° C. with end-over-end rotation, samples were diluted with five volumes of ice-cold RPMI medium (Gibco BRL) and centrifuged at 1,000×g at 4° C. for 5 minutes. The supernatant was recovered and stored at −20° C. until assay of TNF-α by ELISA (R&D Systems, Minneapolis, Minn.).
TLR ligand-induced TNF-α release in whole human blood ex vivo as described above in Example 1. The single stranded ribonucleic acid (ssRNA) tested in this example was ssRNA40/LyoVec purchased from InvivoGen (San Diego, Calif.) comprised of single-stranded GU-rich oligonucleotide (5′-GsCsCsCsGsUsCsUsGsUsUsGsUsGsUsGsAsCsUsC-3′ (SEQ ID NO:1); where “s” depicts a phosphothioate linkage complexed with the cationic lipid LyoVec that protects the RNA from degradation and enhance is uptake by immune cells. The guanosine analog loxoribine (TLR7 ligand) was purchased from InvivoGen.

[4] = system: neonatal myeloid dendritic cells (mDCs); experiment: CD40 expression on myeloid dendritic cells in whole blood (flow cytometry); type: cell-based, human; settings: imiquimod 250 μM, resiquimod 50 μM, 19 hours; FIGS. 15A-15D
Experimental: After lysis of red blood cells and fixation, mDCs were identified as lint-/HLA-DR+/CD11c+ cells using four color flow cytometry (BD BioSciences) and CD40 was measured using a PE-conjugated mAb.
Newborn cord or adult peripheral blood was incubated with TLR agonists at 37° C. for 19 hours. mDCs were identified by flow cytometry and the level of expression of CD40 was measured using a PE-conjugated mAb.
CD40 expression on mDCs was studied in whole newborn cord blood, in comparison to those of adult peripheral blood, using four-color flow cytometry (BD Biosciences). mDCs were identified as lineage 1-/HLA-DR+/CD11c+ cells. Upregulation of surface CD40 expression was measured using a phycoerythrin-conjugated anti-CD40 mAb.

| Molecule | concentration inducing TLR8 activity as fraction of that necessary to induce TLR7-mediated activity (TLR8 and TLR7 [1]) | further results |
| --- | --- | --- |
| CC(C)c1nc2c(N)nc3ccccc3c2s1 [2-(1-methylethyl)thiazolo[4,5-c]quinolin-4-amine] | less than one-fifth |  |
| CC(C)Cc1nc2c(N)nc3ccccc3c2s1 [2-(2-methylpropyl)thiazolo[4,5-c]quinolin-4-amine] | less than one-fifth |  |
| CCCCc1nc2c(N)nc3cccnc3c2s1 [2-butylthiazolo[4,5-c][1,5]naphthyridin-4-amine] |  | TLR8 selectivity (TLR8 and TLR7 [1]): TLR8-selective |
| CCCc1nc2c(N)nc3cccnc3c2s1 [2-propylthiazolo[4,5-c][1,5]naphthyridin-4-amine] | less than one-fifth |  |
| CCCc1nc2c(N)nc3ccc(N)cc3c2s1 [2-propylthiazolo[4,5-c]quinoline-4,8-diamine] |  | TLR8 selectivity (TLR8 and TLR7 [1]): TLR8-selective |
| CCCc1nc2c(N)nc3cc(OCCOCCCl)ccc3c2s1 [7-[2-(2-chloroethoxy)ethoxy]-2-propyl[1,3]thiazolo[4,5-c]quinolin-4-amine] | less than one-fifth |  |
| CCCc1nc2c(N)nc3cc(F)ccc3c2s1 [7-fluoro-2-propylthiazolo[4,5-c]quinolin-4-amine] | less than one-fifth |  |
| CCCc1nc2c(N)nc3ccc(C)cc3c2s1 [8-methyl-2-propylthiazolo[4,5-c]quinolin-4-amine] | less than one-fifth |  |
| CCOCc1nc2c(N)nc3c(c2n1CC(C)(C)O)CCCC3 [IRM3, 4-amino-2-(ethoxymethyl)-α,α-dimethyl-6,7,8,9-tetrahydro-1H-imidazo[4,5-c]quinoline-1-ethanol] |  | TLR agonism (which TLR) (TLR8 and TLR7 [2]): agonist of both TLR7 and TLR8 |
| CCCc1nc2c(N)nc3cc(-c4cccc(NS(C)(=O)=O)c4)ccc3c2s1 [N-[3-(4-amino-2-propylthiazolo[4,5-c]quinolin-7-yl)phenyl]methanesulfonamide] | less than one-fifth |  |
| CCCc1nc2c(N)nc3cc(OCCCNS(=O)(=O)c4cccc5c(N(C)C)cccc45)ccc3c2s1 [N-{3-[(4-amino-2-propyl[1,3]thiazolo[4,5-c]quinolin-7-yl)oxy]propyl}-5-(dimethylamino)naphthalene-1-sulfonamide] | one half to about one-fifth |  |
| CCCc1nc2c(N)nc3cc(OCCCCCCNS(C)(=O)=O)ccc3c2s1 [N-{6-[(4-amino-2-propyl[1,3]thiazolo[4,5-c]quinolin-7-yl)oxy]hexyl}methanesulfonamide] | less than one-fifth |  |
| CC(C)Cn1cnc2c(N)nc3ccccc3c21 [imiquimod] |  | TLR agonism (which TLR) (TLR8 and TLR7 [2]): agonist at TLR7 receptors; ligand-induced TNF-α release in newborn cord blood compared with adult peripheral blood [3]: impaired; upregulation of CD40 expression in neonatal mDCs [4]: does not |
| CCOCc1nc2c(N)nc3ccccc3c2n1CC(C)(C)O [resiquimod] |  | potency relative to imiquimod (TLR8 and TLR7 [1]; FIG. 11): ~100 fold |
| CCCc1nc2c(N)nc3cc(OCCNC(=O)OC(C)(C)C)ccc3c2s1 [tert-butyl 2-[(4-amino-2-propyl[1,3]thiazolo[4,5-c]quinolin-7-yl)oxy]ethylcarbamate] | one half to about one-fifth |  |
| CCCc1nc2c(N)nc3cc(OCCOCCNC(=O)OC(C)(C)C)ccc3c2s1 [tert-butyl 2{-2-[(4-amino-2-propyl[1,3]thiazolo[4,5-c]quinolin-7-yl)oxy]ethoxy}ethylcarbamate] | less than one-fifth |  |
| CCCc1nc2c(N)nc3cc(OCCCNC(=O)OC(C)(C)C)ccc3c2s1 [tert-butyl 3-[(4-amino-2-propyl[1,3]thiazolo[4,5-c]quinolin-7-yl)oxy]propylcarbamate] | less than one-fifth |  |
| Pam3-CSSNA [tBLP] |  | ligand-induced TNF-α release in newborn cord blood compared with adult peripheral blood [3]: impaired; ligand-induced TNF-α release in cord blood compared with adult controls ([3]; cord blood from both Caesarian-section and vaginal deliveries, 5 hours, FIGS. 2A-2C): impaired; magnitude and kinetics of ligand-induced TNF-α release in newborn cord vs. adult peripheral blood ([3]; time course, FIGS. 3A-3C): lower magnitude, but similar kinetics |
| S-(2,3-bisAcyloxypropyl)-cysteine-GNNDESNISFKEK (C(2,3‑bisacyloxypropyl)GNNDESNISFKEK; also: acyl groups not given here) [MALP, synthetic diacylated BLP from Mycoplasma fermentans (TLR2/6)] |  | ligand-induced TNF-α release in newborn cord blood compared with adult peripheral blood [3]: impaired |
